Holding throughout (assay type): biochemical
For one assay, the target named is T1, hCA I (Homo sapiens, UniProt P00915).
T1 construct: made in house
Description: stopped-flow CO2 hydrase assay, hCA I. Conditions: recombinant hCA I; mean from 3 different assays, errors ±5–10%. The procedure:
(§1) An applied photophysics stopped-flow instrument has been used for assaying the CA-catalyzed CO2 hydration activity. Phenol red (0.2 mM) has been used as indicator, working at the absorbance maximum of 557 nm, with 20 mM Hepes (pH 7.5, for α-CAs) as buffer, and 20 mM NaClO4 (for maintaining constant the ionic strength), following the initial rates of the CA-catalyzed CO2 hydration reaction for a period of 10–100 s. The CO2 concentrations ranged from 1.7 to 17 mM for the determination of the kinetic parameters and inhibition constants. […] The uncatalyzed rates were determined in the same manner and subtracted from the total observed rates. Stock solutions of each inhibitor (1 µM) were prepared in distilled-deionized water and dilutions up to 0.1 nM were done thereafter with the assay buffer. […] The inhibition constants were obtained by non-linear least-squares methods using PRISM 3 and the Cheng–Prusoff equation, and represent the average from at least three different determinations. All recombinant CA isoforms were obtained in-house as previously reported[38]^,[39].

A further assay addresses T2, hCA IX (Homo sapiens, UniProt Q16790).
T2 construct: made in house
In words: stopped-flow CO2 hydrase assay, hCA IX. The settings on record: recombinant hCA IX; mean from 3 different assays, errors ±5–10%. As for the experimental part: as §1

In the next assay the target is T3, hCA II (Homo sapiens, UniProt P00918).
T3 construct: made in house
Description: stopped-flow CO2 hydrase assay, hCA II. The settings on record: recombinant hCA II; mean from 3 different assays, errors ±5–10%. As for the experimental part:
as §1

A further assay deals with T4, hCA XII (Homo sapiens, UniProt O43570).
T4 construct: made in house
In words: stopped-flow CO2 hydrase assay, hCA XII. Conditions: recombinant hCA XII; mean from 3 different assays, errors ±5–10%. The procedure: as §1

Molecules are shown by their SMILES.

Drawing on publication PMC6009879, “Open saccharin-based secondary sulfonamides as potent and selective inhibitors of cancer-related carbonic anhydrase IX and XII isoforms” (Journal of Enzyme Inhibition and Medicinal Chemistry, 2016), this text covers Ki for 21 compounds.

T1 sequence (P00915 whole entry): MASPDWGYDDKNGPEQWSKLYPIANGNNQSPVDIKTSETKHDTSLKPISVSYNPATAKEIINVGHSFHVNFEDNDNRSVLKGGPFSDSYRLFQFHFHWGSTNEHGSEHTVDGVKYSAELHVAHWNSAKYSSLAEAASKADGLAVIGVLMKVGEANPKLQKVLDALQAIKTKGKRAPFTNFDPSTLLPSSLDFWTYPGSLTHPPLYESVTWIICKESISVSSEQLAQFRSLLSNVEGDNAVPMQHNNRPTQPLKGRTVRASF
T4 sequence (O43570 25-354): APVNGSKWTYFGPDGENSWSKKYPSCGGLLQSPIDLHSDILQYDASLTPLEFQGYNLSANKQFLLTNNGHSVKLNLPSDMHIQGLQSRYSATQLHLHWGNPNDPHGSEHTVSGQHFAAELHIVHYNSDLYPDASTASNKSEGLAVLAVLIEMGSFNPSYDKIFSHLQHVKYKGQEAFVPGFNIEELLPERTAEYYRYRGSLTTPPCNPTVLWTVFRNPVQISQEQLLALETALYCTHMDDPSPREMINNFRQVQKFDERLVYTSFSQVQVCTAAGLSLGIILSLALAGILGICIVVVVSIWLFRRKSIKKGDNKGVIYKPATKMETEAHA

For `Cc1ccccc1CNS(=O)(=O)c1ccccc1CO` [Compound 1, 2-(Hydroxymethyl)-N-(2-methylbenzyl)benzenesulfonamide], the Ki is greater than 10000 nM on hCA I, 218 nM at hCA IX, greater than 10000 nM at hCA II and 4.6 nM on hCA XII.

Take `O=S(=O)(NCc1ccccc1C(F)(F)F)c1ccccc1CO` [Compound 2, 2-(Hydroxymethyl)-N-(2-(trifluoromethyl)benzyl)benzenesulfonamide]: the Ki is greater than 10000 nM at hCA I, 200 nM at hCA IX, greater than 10000 nM on hCA II and 54 nM at hCA XII.

As to `O=[N+]([O-])c1ccccc1CNS(=O)(=O)c1ccccc1CO` [Compound 3, 2-(Hydroxymethyl)-N-(2-nitrobenzyl)benzenesulfonamide], the Ki was greater than 10000 nM on hCA I, 104 nM at hCA IX, greater than 10000 nM at hCA II and 383 nM at hCA XII.

For the compound `O=S(=O)(NCc1ccccc1Br)c1ccccc1CO` [Compound 4, N-(2-bromobenzyl)-2-(hydroxymethyl)benzenesulfonamide], the Ki is greater than 10000 nM at hCA I, 113 nM at hCA IX, greater than 10000 nM at hCA II and 323 nM at hCA XII.

`Cc1cccc(CNS(=O)(=O)c2ccccc2CO)c1` [Compound 5, 2-(Hydroxymethyl)-N-(3-methylbenzyl)benzenesulfonamide]: the Ki is greater than 10000 nM at hCA I, 223 nM on hCA IX, greater than 10000 nM at hCA II and 4.3 nM on hCA XII.

Turning to `O=S(=O)(NCc1cccc(C(F)(F)F)c1)c1ccccc1CO` [Compound 6, 2-(Hydroxymethyl)-N-(3-(trifluoromethyl)benzyl)benzenesulfonamide], the Ki at hCA I is greater than 10000 nM; on hCA IX, 238 nM; at hCA II it was greater than 10000 nM; on hCA XII, 4.4 nM.

Regarding `O=[N+]([O-])c1cccc(CNS(=O)(=O)c2ccccc2CO)c1` [Compound 7, 2-(Hydroxymethyl)-N-(3-nitrobenzyl)benzenesulfonamide], the Ki on hCA I was greater than 10000 nM; at hCA IX it was 176 nM; at hCA II, greater than 10000 nM; on hCA XII it was 382 nM.

Turning to `O=S(=O)(NCc1cccc(F)c1)c1ccccc1CO` [Compound 8, N-(3-fluorobenzyl)-2-(hydroxymethyl)benzenesulfonamide], the Ki on hCA I is greater than 10000 nM; on hCA IX, 268 nM; at hCA II, greater than 10000 nM; at hCA XII, 247 nM.

Regarding `O=S(=O)(NCc1cccc(Br)c1)c1ccccc1CO` [Compound 9, N-(3-bromobenzyl)-2-(hydroxymethyl)-benzenesulfonamide], the Ki is greater than 10000 nM at hCA I, 267 nM at hCA IX, greater than 10000 nM at hCA II and 64 nM at hCA XII.

As for `Cc1ccc(CNS(=O)(=O)c2ccccc2CO)cc1` [Compound 10, 2-(Hydroxymethyl)-N-(4-methylbenzyl)benzenesulfonamide], the Ki at hCA I was greater than 10000 nM; on hCA IX, 120 nM; on hCA II, greater than 10000 nM; at hCA XII, 5.7 nM.

In the case of `O=S(=O)(NCc1ccc(C(F)(F)F)cc1)c1ccccc1CO` [Compound 11, 2-(Hydroxymethyl)-N-(4-(trifluoromethyl)benzyl)benzenesulfonamide], the Ki at hCA I is greater than 10000 nM; at hCA IX it was 253 nM; on hCA II, greater than 10000 nM; on hCA XII it was 7.2 nM.

`N#Cc1ccc(CNS(=O)(=O)c2ccccc2CO)cc1` [Compound 12, N-(4-cyanobenzyl)-2-(hydroxymethyl)benzenesulfonamide]: the Ki at hCA I is greater than 10000 nM; on hCA IX, 126 nM; on hCA II it was greater than 10000 nM; at hCA XII it was 57 nM.

Consider `O=[N+]([O-])c1ccc(CNS(=O)(=O)c2ccccc2CO)cc1` [Compound 13, 2-(Hydroxymethyl)-N-(4-nitrobenzyl)benzenesulfonamide], for which the Ki is greater than 10000 nM on hCA I, 20 nM at hCA IX, greater than 10000 nM at hCA II and 54 nM at hCA XII.

Consider `O=S(=O)(NCc1ccc(F)cc1)c1ccccc1CO` [Compound 14, N-(4-fluorobenzyl)-2-(hydroxymethyl)benzenesulfonamide], for which the Ki at hCA I was greater than 10000 nM; at hCA IX it was 26 nM; on hCA II, greater than 10000 nM; on hCA XII it was 63 nM.

On to `O=S(=O)(NCc1ccc(Cl)cc1)c1ccccc1CO` [Compound 15, N-(4-chlorobenzyl)-2-(hydroxymethyl)benzenesulfonamide], for which the Ki at hCA I was greater than 10000 nM; on hCA IX, 154 nM; on hCA II, greater than 10000 nM; at hCA XII, 48 nM.

As to `O=S(=O)(NCc1ccc(Br)cc1)c1ccccc1CO` [Compound 16, N-(4-bromobenzyl)-2-(hydroxymethyl)benzenesulfonamide], the Ki at hCA I is greater than 10000 nM; on hCA IX it was 145 nM; on hCA II it was greater than 10000 nM; at hCA XII, 432 nM.

As for `O=S(=O)(NCc1c(F)cccc1F)c1ccccc1CO` [Compound 17, N-(2,6-difluorobenzyl)-2-(hydroxymethyl)benzenesulfonamide], the Ki on hCA I is greater than 10000 nM; on hCA IX, 296 nM; at hCA II, greater than 10000 nM; at hCA XII, 45 nM.

Take `O=S(=O)(NCc1ccc(Cl)c(Cl)c1)c1ccccc1CO` [Compound 18, N-(3,4-dichlorobenzyl)-2-(hydroxymethyl)benzenesulfonamide]: the Ki is greater than 10000 nM at hCA I, 298 nM at hCA IX, greater than 10000 nM on hCA II and 40 nM on hCA XII.

`O=S(=O)(NCc1cccc2ccccc12)c1ccccc1CO` [Compound 19, 2-(Hydroxymethyl)-N-(naphthalen-1-ylmethyl)benzenesulfonamide]: the Ki at hCA I was greater than 10000 nM; at hCA IX it was 294 nM; at hCA II, greater than 10000 nM; at hCA XII it was 345 nM.

For `O=S(=O)(NCC(O)c1ccccc1)c1ccccc1CO` (stereo not drawn) [Compound 20, N-(2-hydroxy-2-phenylethyl)-2-(hydroxymethyl)benzenesulfonamide], the Ki at hCA I is greater than 10000 nM; at hCA IX it was 224 nM; on hCA II, greater than 10000 nM; on hCA XII, 64 nM.

Regarding `COc1cccc(C(O)CNS(=O)(=O)c2ccccc2CO)c1` (stereo not drawn) [Compound 21, N-(2-hydroxy-2-(3-methoxyphenyl)ethyl)-2-(hydroxymethyl)benzenesulfonamide], the Ki is greater than 10000 nM at hCA I, 31 nM at hCA IX, greater than 10000 nM on hCA II and 355 nM on hCA XII.

A word on the Ki: it is a measure of affinity in units of concentration, obtained from inhibition or displacement.
